# Experimental data published in patent US10897915B2, “Method for making coffee products containing cannabis ingredients” (Blacklist Holdings, Inc., priority 2014, dated 2021).
# Tests used:
# [1] = cited from earlier work
# [2] = Coffee mug cross section analysis of brewed cup, 1:10 oil/TM mix underneath the filter; assay type: physicochemical; details: 1:10 oil/TM mix underneath filter
# Method: This example investigated how THC was interacting with the coffee mug after it had been brewed. A cup of coffee was brewed with the 1:10 oil/TM mix placed in the K-Cup underneath the filter containing coffee grounds.
# Two separate aliquots were taken from the cup (top and middle), and then coffee was carefully poured out. Methanol was added to the cup and the oil that had condensed to the sides of the cup was dissolved and quantified.
smiles,measurement,setting,value
"CCCCCc1cc(O)c2c(c1)OC(C)(C)[C@@H]1CCC(C)=C[C@@H]21 [THC, delta-9-tetrahydrocannabinol]",THC in a 200 mL cup of coffee at aqueous solubility,[1],0.6 mg
same,THC found in the oily coffee film at the top of the cup,[2],20-25%
same,THC in the coffee,[2],approximately 60%
same,THC lost (unknown cause),[2],20%
